Test results published in patent US9682013B2, “Pharmaceutical compositions comprising human antibodies to PCSK9” (SANOFI BIOTECHNOLOGY, priority 2011, dated 2017).
pKd: −log10 of the molar value.

Columns and labels:
[1] = system: patients with an elevated LDL-C (≧100 mg/dL or 2.59 mmol/L) treated with a stable dose of atorvastatin 10 mg; assay: Study 2: randomized, double-blind, placebo-controlled 8-week study of 316P 150 mg E2W with atorvastatin 10 mg or 80 mg; assay type: in vivo, human
Procedure: This was a randomized, double-blind, 3-parallel-groups, placebo-controlled, fixed dose/dose regimen, multicenter, 8-week study in subjects with primary hypercholesterolemia, aged 18-75 years. One aim of this study was to assess the efficacy and safety of 316P in patients with an elevated LDL-C (≧100 mg/dL or 2.59 mmol/L) treated with a stable dose of atorvastatin 10 mg.
During the screening period, patients had to be stabilized to atorvastatin 10 mg for at least 6 weeks, if they are not already. Then, after 1 additional screening week, patients were centrally randomized via IVRS/IWRS in a 1:1:1 ratio to one of the 3 treatment groups (placebo for 316P+atorvastatin 80 mg, 316P 150 mg E2W+atorvastatin 80 mg, 316P 150 mg E2W+atorvastatin 10 mg) and treated in a double-blind manner for approximately 8 weeks. 316P was administered every 2 weeks on site trough subcutaneous injection and atorvastatin was administered orally once daily in the evening at home. The double-blind treatment period was then followed by an 8-week follow-up period.
Inclusion criteria: • Patients (patients receiving a lipid lowering treatment other than atorvastatin/or not at stable dose of atorvastatin 10 mg for at least 6 weeks prior to screening period, or drug naive patients) with primary hypercholesterolemia likely to have low-density lipoprotein cholesterol (LDL-C)≧100 mg/dL (≧2.59 mmol/L) at the end of the run-in period on atorvastatin therapy (Week-1). • OR • Patients with primary hypercholesterolemia treated with stable dose of atorvastatin 10 mg for at least 6 weeks prior to screening period and likely to have low-density lipoprotein cholesterol (LDL-C)≧100 mg/dL (≧2.59 mmol/L) at the screening visit (Week-1).
Duration of Study Period Per Subject:
• Arm 1: The first group of patients receives one subcutaneous injection of 1 mL of antibody 316P, administered in the abdomen every two weeks, with a dose regimen at 150 mg, for a double-blind treatment period of 8 weeks; • Atorvastatin is administered once per day at a stable dose of 10 mg as background therapy. • Atorvastatin is administered at a dose of 80 mg once during the double-blind treatment period of 8 weeks. • Arm 2: The second group of patients receives one subcutaneous injection of 1 mL of a placebo solution, administered in the abdomen every two weeks, with a dose regimen at 150 mg, for a double-blind treatment period of 8 weeks; • Atorvastatin is administered once per day at a stable dose of 10 mg as background therapy. • Atorvastatin is administered at a dose of 80 mg (2 over-encapsulated atorvastatin 40 mg tablets) once during the double-blind treatment period of 8 weeks. • Arm 3: The third group of patients receives one subcutaneous injection of 1 mL of antibody 316P, administered in the abdomen every two weeks, with a dose regimen at 150 mg, for a double-blind treatment period of 8 weeks; • Atorvastatin is administered once per day at a stable dose of 10 mg as background therapy. • Atorvastatin is administered at a dose of 10 mg (1 over-encapsulated atorvastatin 10 mg tablet+1 matching placebo tablet) once during the double-blind treatment period of 8 weeks. Primary and Key Secondary Endpoints Primary Endpoints
The primary efficacy variable is the percent change in calculated LDL-C from baseline to Week 8, which is defined as: 100×(calculated LDL-C value at Week 8-calculated LDL-C value at baseline)/calculated LDL-C value at baseline.
In case of unavailable calculated LDL-C value at Week 8 as defined above, then the last calculated LDL-C value measured during the efficacy period and before the Week 8 time window was used to impute the missing Week 8 calculated LDL-C value (Last Observation Carried Forward [LOCF] procedure). […]

[2] = system: patients with heterozygous familial hypercholesterolemia (heFH); assay: Study 6: randomized, placebo-controlled 12-week trial in heFH on statin with or without ezetimibe (interim analysis); assay type: in vivo, human; details: every two or four weeks
Procedure: A randomized, double-blind, multi-dose, placebo controlled, 75-patient trial in patients with heterozygous familial hypercholesterolemia (heFH). In this trial, patients must meet the World Health Organization criteria for heFH, be on a stable daly statin regimen for at least 6-weeks before entering the trial, and have serum LDL-C levels ≧100 mg/dL. Patients were permitted to be taking ezetimibe in addition to a daily statin. The primary endpoint of the study is the change in LDL cholesterol from baseline compared to placebo over the 12-week study period.
Patients treated with different doses of 316P achieved mean LDL-C reductions of approximately 30% to greater than 60% from baseline at 12-weeks compared to a 10% reduction with placebo (p<0.01), which was the primary endpoint of the study. The interim analysis was conducted when all patients completed the primary endpoint at 12-weeks.

male Syrian hamster = assay: Study 4: cholesterol lowering effect of 316P alone and with atorvastatin in hamster; assay type: in vivo
Excerpt: This is an animal study on the cholesterol lowering effect of 316P, a fully human PCSK9 blocking monoclonal antibody in male Syrian hamster
The aim of this study was to investigate the effect of 316P, a human monoclonal antibody to human PCSK9, alone and in combination with statins on expression of the hepatic LDLR and the resulting effects on serum LDL-C.
The maximal effect on LDL-C (−17/−27/−60%) was seen within 7 days. PK data of 316P are in line with the dose-dependent effect on LDL-C.

hPCSK9 D238 mutated = hPCSK9 D238 mutated (Homo sapiens, UniProt Q8NBP7, D238R); details: cited from earlier work
Chain of hPCSK9 D238 mutated (Q8NBP7 153-692 D238R): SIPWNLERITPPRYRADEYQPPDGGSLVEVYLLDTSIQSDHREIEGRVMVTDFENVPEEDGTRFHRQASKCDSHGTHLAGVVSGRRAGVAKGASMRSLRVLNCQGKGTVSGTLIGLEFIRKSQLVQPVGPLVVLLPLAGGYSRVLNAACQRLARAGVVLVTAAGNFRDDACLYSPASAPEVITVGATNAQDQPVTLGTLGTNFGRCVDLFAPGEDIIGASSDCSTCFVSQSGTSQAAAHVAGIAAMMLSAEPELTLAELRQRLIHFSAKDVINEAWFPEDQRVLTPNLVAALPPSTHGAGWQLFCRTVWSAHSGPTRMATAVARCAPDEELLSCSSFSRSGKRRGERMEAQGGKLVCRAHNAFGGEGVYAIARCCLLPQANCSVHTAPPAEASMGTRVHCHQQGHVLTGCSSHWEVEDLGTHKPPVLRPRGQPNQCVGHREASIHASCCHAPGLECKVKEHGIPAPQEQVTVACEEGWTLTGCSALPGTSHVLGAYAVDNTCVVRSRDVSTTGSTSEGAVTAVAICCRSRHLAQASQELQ

hPCSK9 = hPCSK9 (Homo sapiens, UniProt Q8NBP7); details: unmutated hPCSK9; cited from earlier work
Chain of hPCSK9 (Q8NBP7 153-692): as the sequence (Q8NBP7 153-692 D238R) above, with R86D counted along it

[3] = 316P 150 mg with atorvastatin, 8 weeks, consistent with LDL-C decrease
[4] = 316P 150 mg+atorvastatin 80 mg vs placebo+atorvastatin 80 mg, p<0.0001
[5] = single s.c. injection 1/3/10 mg/kg

316P: fully human anti-PCSK9 antibody comprising a HCVR as shown in SEQ ID NO: 90 and LCVR as shown in SEQ ID NO: 92 [Antibody 316P]
safety signal ([1]; 150 mg E2W, 8 weeks): No particular safety signal was noted | tolerability ([1]; 150 mg E2W, 8 weeks of treatment, all treatment groups): well tolerated | HDL-C ([1]; 316P 150 mg co-administered with atorvastatin 10 mg or 80 mg): trend of increase | HDL-C percent change from baseline, LS mean ([1]; 316P 150 mg co-administered with atorvastatin 10 mg, 8 weeks): +2.6% | HDL-C percent change from baseline, LS mean ([1]; 316P 150 mg co-administered with atorvastatin 80 mg, 8 weeks): +5.8% | Apo-B/ApoA-1 ratio [1, 3]: Consistent results | ApoB [1, 3]: Consistent results | Total-C [1, 3]: Consistent results | non HDL-C [1, 3]: Consistent results | median reduction from baseline in LDL-C at 8 weeks ([1]; 316P 150 mg+atorvastatin 10 mg group): −70.4% | median reduction from baseline in LDL-C at 8 weeks ([1]; 316P 150 mg+atorvastatin 80 mg group): −70.6% | LS mean difference in percent change from baseline in LDL-C at 8 weeks [1, 4]: −55.8% | effect size estimate, rank-based analysis of covariance, percent change in LDL-C at 8 weeks [1, 4]: −54.5% | troponin levels ([1]; all treatment groups): no change | mean LDL-C reductions at 12-weeks compared to placebo [2]: significantly greater mean LDL-C reductions | LDLR expression (male Syrian hamster; 316P on top of Atorvastatin): increased LDLR expression | serum LDL-C (male Syrian hamster; 316P on top of Atorvastatin): decreased serum LDL-C | statin resistance (male Syrian hamster; 316P on top of Atorvastatin): could overcome the statin resistance | combination treatment compared with single treatment (male Syrian hamster; 316P plus Atorvastatin): more effective than single treatment with 316P alone | maximal effect on LDL-C (male Syrian hamster; single s.c. injection 1 mg/kg): −17% | maximal effect on LDL-C (male Syrian hamster; single s.c. injection 3 mg/kg): −27% | maximal effect on LDL-C (male Syrian hamster; single s.c. injection 10 mg/kg): −60% | duration of dose-dependent decrease in LDL-C (male Syrian hamster; [5]): more than 2 weeks | time to maximal effect on LDL-C (male Syrian hamster; [5]): ≤ 7 days | T1/2 decrease (hPCSK9 D238 mutated; D238 mutated vs unmutated): > 30 fold | reduction in binding affinity (hPCSK9 D238 mutated; D238 mutated vs unmutated): > 400 fold | pKd (hPCSK9 D238 mutated; D238 mutated): ~6.39 | pKd (hPCSK9): ~9.00
